Measured values as given in patent US8431596B2 (Cancer Research Technology Limited, priority 2007, dated 2013).

Legend:
[1] = test system: Axl activation via the downstream phosphorylation of Akt (serine 473); assay: AXL Inhibition Cell Based ELISA Assay (FACE kit, Gas6-stimulated MDA-MB-231 cells); settings: Homo sapiens, first data set, Gas6 200 ng/ml, pS473 Akt
Experimental: AXL Inhibition Cell Based ELISA Assay
This cell based ELISA assay is a simple cell-based method used to monitor activation of proteins by phosphorylation. The Active Motif, Fast Activated Cell-based ELISA (FACE) kit (Active Motif Cat No: 48120) was used in this case to monitor the inhibition, by test compounds, of Axl activation via the downstream phosphorylation of Akt (serine 473). In this system, cells are cultured in 96 well plates and treated with test compounds and Axl is activated by the introduction of Gas6 (Axl ligand). The inhibition of Axl can be directly assessed via the reduction of pS^473 Akt levels.
Active Motif FACE Kit reagents (Active Motif Cat. No: 48120(AKT)).
10% hydrogen peroxide (Sigma H1009).
10% Sodium azide (Sigma 7128).
37% Formaldehyde (Sigma F8775).
Axl/Fc conjugate (R&D Systems 154-AL).
Recombinant mouse Gas6 (R&D Systems 986-GS-025).
All cell incubations were carried out in humidified incubators set at 5% CO2 and 37° C. […]
Immunostaining (carried out as outlined in FACE kit protocol). […] 100 μL developing solution was added to each well and monitored for colour change to medium to dark blue (2 to 20 minutes). 100 μL of stop solution was then added and absorbance was read at 450 nm within 5 minutes of addition.
Crystal Violet cell staining. After reading absorbance at 450 nm, the plates were washed twice with 200 μL wash buffer and twice with 200 μL PBS. […]

[2] = molecular target: T1, AXL (human catalytic domain) (Homo sapiens, UniProt P30530); assay: AXL (human catalytic domain) Enzyme Activity Assay (IMAP fluorescence polarisation); format: biochemical
T1 construct: purchased Upstate Ltd. 14-512
T1 sequence (P30530 473-894): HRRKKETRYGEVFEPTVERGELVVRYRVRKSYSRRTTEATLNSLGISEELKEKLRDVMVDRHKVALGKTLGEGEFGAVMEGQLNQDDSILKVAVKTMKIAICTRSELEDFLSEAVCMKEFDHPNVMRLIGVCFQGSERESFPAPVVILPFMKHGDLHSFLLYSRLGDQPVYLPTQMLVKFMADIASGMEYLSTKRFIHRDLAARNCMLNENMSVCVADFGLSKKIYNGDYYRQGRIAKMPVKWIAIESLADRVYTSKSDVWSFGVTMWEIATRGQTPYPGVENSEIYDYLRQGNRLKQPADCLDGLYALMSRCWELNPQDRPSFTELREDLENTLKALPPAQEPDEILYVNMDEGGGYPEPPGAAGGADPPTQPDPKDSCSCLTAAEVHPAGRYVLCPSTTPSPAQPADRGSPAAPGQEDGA
Summary of the method: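 IMAP FP readout (Ex485/Em535, after overnight binding) measured inhibition of the human AXL catalytic domain (aa473-894, 15 nM final) acting on 100 nM 5FAM-CSK-tide at 150 μM ATP, equal to KM. Reactions ran 60 min at room temperature in pH 7.0 HEPES buffer; IC50 from 10-point curves.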

[3] = first data set, recombinant AXL isoform 1 aa473-894, 150 μM ATP
[4] = further data set (WW-001 through WW-169, XX-001 through XX-469, YY-001 through YY-016, ZZ-001 through ZZ-003), 150 μM ATP

Compound | IC50 [1] | IC50 [2, 3] | IC50 [2, 4]
CCNCCOc1ccc(Nc2nc3cccc(-c4ccc5c(c4)OCCO5)n3n2)cc1 [XX-070] | 1030 nM | < 1000 nM | ≤ 100 nM
CN1CCOc2cc(-c3cccc4nc(NC(=O)C5CC5)nn34)ccc21 [WW-104] | 8490 nM | < 1000 nM | 100 to 1000 nM
COc1ccc(-c2cccc3nc(Nc4ccc5c(c4)OCCCO5)nn23)cc1 [XX-062] | – | 1000 to 10000 nM | 1000 to 10000 nM
O=C(Cn1cc(-c2cccc3nc(Nc4ccc(OCCN5CCCC5)cc4)nn23)cn1)c1cccs1 [XX-317] | – | – | 100 to 1000 nM
CCOc1ccc(-c2nccc3nc(Nc4ccc(OCCN5CCCC5)cc4)nn23)cc1 [YY-007] | – | – | 100 to 1000 nM
COc1ccc(-c2cccc3nc(Nc4cccc(N(C)C(=O)C(C)N5CCOCC5)c4)nn23)cc1 (centres unmarked) [XX-391] | – | – | 100 to 1000 nM
COc1ccc(-c2cccc3nc(Nc4cccc(N)c4)nn23)cc1 [XX-061, N-[5-(4-Methoxy-phenyl)-[1,2,4]triazolo[1,5-a]pyridin-2-yl]-benzene-1,3-diamine] | – | 1000 to 10000 nM | 1000 to 10000 nM
CCN(CC)CCOc1cc(Nc2nc3cccc(-c4cnn(Cc5ccccc5)c4)n3n2)ccn1 [XX-387] | – | – | 100 to 1000 nM
